What was measured:
aldose reductase = molecular target: T1, aldose reductase (Rattus norvegicus, UniProt P07943); experiment: Aldose reductase inhibitory effect (enzyme from crystalline lenses, DL-glyceraldehyde substrate); type: biochemical, rat (male SD); settings: 10 mM DL-glyceraldehyde, pH 6.2, 30° C.
T1 construct: Then their crystalline lenses were immediately removed and stored at -80° C; The lenses were homogenized; from tissue; host or cells: crystalline lenses of six-week-old male SD rats
Experimental: Six-weeks-old male SD rates were anesthetized with ether and killed. Then their crystalline lenses were immediately removed and stored at -80° C. […] All operations were conducted at 4° C. and the enzyme solution was stored at -80° C.
More specifically, 0.1 ml of DL glyceraldehyde (final concentration: 10 mM) was added to 0.9 ml of 100 mM sodium potassium phosphate buffer (pH 6.2) which contained lithium sulfate (final concentration: 400 mM), reduced nicotinamide adenine dinucleotide phosphate (final concentration: 0.15 mM), the enzyme solution, and the compound to be evaluated (final concentration: 10^-6 M, 10^-7 M or […]), and then the reaction was conducted at 30° C. for 5 minutes. During the reaction, the change in the absorbance at 340 nm with time was monitored. The maximum reducing rate of the absorbance (U) during the reaction was determined. By subtracting, from this value, the maximum reducing rate (Uo) at 340 nm of the reaction solution before the addition of the substrate (DL-glyceraldehyde), the reaction rate (V=U-Uo) was calculated as a true reaction rate in the presence of the compound to be tested.
The same procedure was repeated except for the absence of the compound to be tested. A true reaction rate (Vo) in case the enzyme was not inhibited was calculated (Vo =U'-Uo '). The aldose reductase inhibitory activity of the test compounds was determined according to the following formula:
Rate of Inhibition (%)=(Vo -V)/Vo ×100

[1] = system: accumulation of sorbitol in sciatic nerve; experiment: Inhibiting the accumulation of sorbitol in sciatic nerve of streptozotocin diabetic rats; type: in vivo, Sprague-Dawley male rats; settings: twice a day for 5 days
Experimental: Groups of 6 to 8-weeks-old Sprague-Dawley male rats (4 aminals per group) were fasted for 18 hours and streptozotocin was injected through the tail vein in a dose of 60 mg/kg to thus obtain diabetic rats. Immediately after the administration of the streptozotocin, each compound to be tested was orally administered to these rats in the form of a suspension at a dose of 10 mg/kg, 30 mg/kg and 50 mg/kg (each was suspended in a 0.5% sodium carboxymethyl cellulose solution) twice a day (9 o'clock in the morning and 5 o'clock in the afternoon) for 5 days. During the test, the rats took diet and drank water freely. 4 Hours after the final administration of the drug in the 5th day's morning (9 o'clock in the morning), the rats were sacrificed and then the sciatic nerve thereof was removed to determine the amount of sorbitol accumulated therein.
The results are expressed in the percentage obtained while the value obtained on the control to which any drug was not administered is defined to be 100.

IC50 (aldose reductase) [nM]	Structure (SMILES)	Rate of Inhibition of Sorbitol Accumulation ([1]; 10 mg/kg oral) [%]	Rate of Inhibition of Sorbitol Accumulation ([1]; 30 mg/kg oral) [%]
21	O=C(O)Cn1nnnc1-c1ccsc1 [Example 2-5, [5-(3-thienyl)tetrazol-1-yl] acetic acid]	73	90
16	O=C(O)Cn1nnnc1-c1cccs1 [Example 2-1, [5-(2-thienyl)tetrazol-1-yl] acetic acid]	68	89

Source: patent publication USRE35321E, “Tetrazoleacetic acid derivatives having aldose reductase inhibitory activity” (Wakamoto Pharmaceutical Co., Ltd., priority 1990, dated 1996)
